Reference: patent US20230113037A1 (Bayer Aktiengesellschaft, priority 2019, published 2023)
Read-outs that look alike come from different tables or passages of the source.

Tests used:
AHR [1] = target: T1, AHR (Homo sapiens, UniProt P35869); test: In vitro assay 1: antagonism in human cell line (AHR transactivation, firefly luciferase reporter, kynurenic acid prestimulated); format: cell-based; conditions: AHR Antagonism Human IC50 [M]
T1 construct: U87 MG glioblastoma cells (ATCC #HTB-14) endogenously expressing AHR; endogenous in cells; host or cells: U87 MG glioblastoma cells (ATCC #HTB-14)
T1 sequence (P35869 11-848): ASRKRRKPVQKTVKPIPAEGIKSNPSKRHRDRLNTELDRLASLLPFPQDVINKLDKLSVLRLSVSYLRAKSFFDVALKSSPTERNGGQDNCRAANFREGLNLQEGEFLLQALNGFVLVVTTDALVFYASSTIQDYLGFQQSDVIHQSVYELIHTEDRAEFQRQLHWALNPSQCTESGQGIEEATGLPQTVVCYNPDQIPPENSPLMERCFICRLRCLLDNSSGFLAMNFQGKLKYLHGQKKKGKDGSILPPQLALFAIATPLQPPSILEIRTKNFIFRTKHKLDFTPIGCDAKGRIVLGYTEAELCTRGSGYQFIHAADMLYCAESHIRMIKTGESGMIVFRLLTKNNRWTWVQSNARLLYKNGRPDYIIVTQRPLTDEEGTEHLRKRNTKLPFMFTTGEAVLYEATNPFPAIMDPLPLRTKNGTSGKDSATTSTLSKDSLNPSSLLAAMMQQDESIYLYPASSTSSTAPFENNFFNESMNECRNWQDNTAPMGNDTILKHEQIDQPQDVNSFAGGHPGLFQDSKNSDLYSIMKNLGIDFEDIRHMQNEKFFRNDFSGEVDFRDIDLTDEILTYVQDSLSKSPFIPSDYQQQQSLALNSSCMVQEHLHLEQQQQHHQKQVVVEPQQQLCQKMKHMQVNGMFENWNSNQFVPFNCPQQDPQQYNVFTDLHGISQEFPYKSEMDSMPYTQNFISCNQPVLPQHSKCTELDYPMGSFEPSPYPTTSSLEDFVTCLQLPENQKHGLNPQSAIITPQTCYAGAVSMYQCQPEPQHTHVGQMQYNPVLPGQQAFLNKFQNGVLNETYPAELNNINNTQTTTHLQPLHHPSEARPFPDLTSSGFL
In short: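 U87 MG + DRE-firefly/constitutive-Renilla stable reporters; kynurenic acid prestim; dual-luc read; Renilla = tox; normalized vs pos/neg controls (pos: 150 μM KYNA + 5 μM staurosporine).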

AHR [2] = target: T2, AHR (Mus musculus, UniProt P30561); test: In vitro assay 3: antagonism in mouse cell line (AHR transactivation, firefly luciferase reporter, kynurenic acid prestimulated); format: cell-based
T2 sequence (P30561 1-848 P471L/N533S/M589L): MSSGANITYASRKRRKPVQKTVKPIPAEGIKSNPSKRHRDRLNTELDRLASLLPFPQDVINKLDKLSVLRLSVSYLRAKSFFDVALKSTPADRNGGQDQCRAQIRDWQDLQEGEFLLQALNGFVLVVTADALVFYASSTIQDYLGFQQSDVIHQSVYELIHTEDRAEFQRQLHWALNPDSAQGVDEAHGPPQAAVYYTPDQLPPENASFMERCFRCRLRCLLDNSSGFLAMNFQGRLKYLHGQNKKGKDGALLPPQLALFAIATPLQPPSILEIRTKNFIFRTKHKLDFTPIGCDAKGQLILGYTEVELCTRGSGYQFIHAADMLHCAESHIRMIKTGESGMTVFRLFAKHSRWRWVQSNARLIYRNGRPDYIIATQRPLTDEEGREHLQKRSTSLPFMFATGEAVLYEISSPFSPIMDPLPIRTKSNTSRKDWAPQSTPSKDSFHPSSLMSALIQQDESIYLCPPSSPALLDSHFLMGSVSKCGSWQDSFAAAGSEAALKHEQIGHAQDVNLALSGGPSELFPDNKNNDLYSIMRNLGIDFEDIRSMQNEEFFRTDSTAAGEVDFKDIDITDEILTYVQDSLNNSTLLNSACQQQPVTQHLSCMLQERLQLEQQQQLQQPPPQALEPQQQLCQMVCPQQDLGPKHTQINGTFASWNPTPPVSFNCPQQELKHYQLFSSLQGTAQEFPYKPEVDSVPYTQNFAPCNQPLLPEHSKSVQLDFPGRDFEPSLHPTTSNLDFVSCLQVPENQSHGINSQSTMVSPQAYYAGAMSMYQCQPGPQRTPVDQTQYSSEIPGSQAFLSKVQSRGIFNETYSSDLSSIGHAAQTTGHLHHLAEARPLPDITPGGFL
In short: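 Mouse cells stably carrying a DRE-driven AHR-inducible firefly luciferase reporter were prestimulated with the endogenous agonist kynurenic acid before compound addition. Luciferase read by SteadyGlo; cells without kynurenic acid served as full-inhibition control, with normalization to positive and negative controls. Repeat tests reported as mean or median.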

[3] = mouse Hepa 1c1c7 cells, 200 μM kynurenic acid, 20 hours, read-out: AHR Antagonism Mouse IC50
[4] = read-out: AHR Antagonism Mouse IC50, mouse Hepa 1c1c7 cells, 200 μM kynurenic acid, 20 hours

IC50 (AHR [1]) | IC50 (AHR [2]; [3]) | Structure (SMILES) | IC50 (AHR [2]; [4])
> 5.71e-07 M | 16.6 nM | CCCNC(=O)[C@H](CC)Nc1nc2c(Br)cccc2c2nc(-c3ccc(Cl)cc3OC(F)F)nn12 [Example 683, (2S)-2-({7-bromo-2-[4-chloro-2-(difluoromethoxy)phenyl][1,2,4]triazolo[1,5-c]quinazolin-5-yl}amino)-N-propylbutanamide] | –
3.39e-09 M | 0.896 nM | CCCCNC(=O)[C@@H](C)Nc1nc2c(Br)cccc2c2nc(-c3ccc(Cl)cc3OC(F)F)nn12 [Example 684, N^2-{7-bromo-2-[4-chloro-2-(difluoromethoxy)phenyl][1,2,4]triazolo[1,5-c]quinazolin-5-yl}-N-butyl-D-alaninamide] | –
> 2e-06 M | 142 nM | CCCNC(=O)[C@H](CC)Nc1nc2c(Br)cccc2c2nc(-c3ccc(Cl)cc3OC(F)(F)F)nn12 [Example 685, (2S)-2-({7-bromo-2-[4-chloro-2-(trifluoromethoxy)phenyl][1,2,4]triazolo[1,5-c]quinazolin-5-yl}amino)-N-propylbutanamide] | –
2.1e-07 M | 18.5 nM | CCCCNC(=O)[C@H](C)Nc1nc2c(Br)cccc2c2nc(-c3ccc(Cl)cc3OC(F)F)nn12 [Example 686, N^2-{7-bromo-2-[4-chloro-2-(difluoromethoxy)phenyl][1,2,4]triazolo[1,5-c]quinazolin-5-yl}-N-butyl-L-alaninamide] | –
> 2e-06 M | 97.8 nM | CCCCNC(=O)[C@H](C)Nc1nc2c(Br)cccc2c2nc(-c3ccc(Cl)cc3OC(F)(F)F)nn12 [Example 687, N^2-{7-bromo-2-[4-chloro-2-(trifluoromethoxy)phenyl][1,2,4]triazolo[1,5-c]quinazolin-5-yl}-N-butyl-L-alaninamide] | –
6.79e-10 M | 0.308 nM | CCCNC(=O)[C@@H](C)Nc1nc2c(Br)cccc2c2nc(-c3ccc(Cl)cc3OC(F)F)nn12 [Example 692, N^2-{7-bromo-2-[4-chloro-2-(difluoromethoxy)phenyl][1,2,4]triazolo[1,5-c]quinazolin-5-yl}-N-propyl-D-alaninamide] | –
7.43e-09 M | 2.52 nM | CCCNC(=O)[C@@H](C)Nc1nc2c(Br)cccc2c2nc(-c3ccc(Cl)cc3OC(F)(F)F)nn12 [Example 693, N^2-{7-bromo-2-[4-chloro-2-(trifluoromethoxy)phenyl][1,2,4]triazolo[1,5-c]quinazolin-5-yl}-N-propyl-D-alaninamide] | –
1.55e-07 M | 719 nM | CC[C@H](Nc1nc2c(Br)cccc2c2nc(-c3cnn(C)c3)nn12)C(N)=O [Example 694, (2S)-2-{[7-bromo-2-(1-methyl-1H-pyrazol-4-yl)[1,2,4]triazolo[1,5-c]quinazolin-5-yl]amino}butanamide] | –
3.23e-09 M | 8.97 nM | CC[C@@H](Nc1nc2c(Br)cccc2c2nc(-c3cnn(C)c3)nn12)C(N)=O [Example 696, (2R)-2-{[7-bromo-2-(1-methyl-1H-pyrazol-4-yl)[1,2,4]triazolo[1,5-c]quinazolin-5-yl]amino}butanamide] | –
6.22e-09 M | 1.19 nM | CC[C@@H](Nc1nc2ccccc2c2nc(-c3ccc(Br)cc3OC(F)(F)F)nn12)C(N)=O [Example 697, (2R)-2-({2-[4-bromo-2-(trifluoromethoxy)phenyl][1,2,4]triazolo[1,5-c]quinazolin-5-yl}amino)butanamide] | –

Second part, the compound before the results:

Structure (SMILES) | IC50 (AHR [1]) | IC50 (AHR [2]; [3]) | IC50 (AHR [2]; [4])
CCn1cc(-c2nc3c4cccc(C(F)(F)F)c4nc(N[C@@H]4CCCCNC4=O)n3n2)cn1 [Example 675, (3R)-3-{[2-(1-ethyl-1H-pyrazol-4-yl)-7-(trifluoromethyl)[1,2,4]triazolo[1,5-c]quinazolin-5-yl]amino}azepan-2-one] | 1.22e-09 M | 2.26 nM | –
O=C1NCCCC[C@H]1Nc1nc2c(C(F)(F)F)cccc2c2nc(-c3cnn(C4CC4)c3)nn12 [Example 676, (3R)-3-{[2-(1-cyclopropyl-1H-pyrazol-4-yl)-7-(trifluoromethyl)[1,2,4]triazolo[1,5-c]quinazolin-5-yl]amino}azepan-2-one] | 6.18e-10 M | 1.97 nM | –
O=C1NCCCC[C@H]1Nc1nc2c(C(F)(F)F)cccc2c2nc(-c3cn[nH]c3)nn12 [Example 677, (3R)-3-{[2-(1H-pyrazol-4-yl)-7-(trifluoromethyl)[1,2,4]triazolo[1,5-c]quinazolin-5-yl]amino}azepan-2-one] | 1.33e-08 M | 53.1 nM | –
CS(=O)(=O)c1ccc(-c2nc3c4cccc(Br)c4nc(N[C@H]4CCCCNC4=O)n3n2)cc1 [Example 680, (3S)-3-({7-bromo-2-[4-(methanesulfonyl)phenyl][1,2,4]triazolo[1,5-c]quinazolin-5-yl}amino)azepan-2-one] | 3.93e-08 M | – | 35.6 nM
COc1ccc(-c2nc3c4cccc(Br)c4nc(N[C@H]4COCCNC4=O)n3n2)cc1 [Example 681, (6S)-6-{[7-bromo-2-(4-methoxyphenyl)[1,2,4]triazolo[1,5-c]quinazolin-5-yl]amino}-1,4-oxazepan-5-one] | 1.45e-08 M | 13.1 nM | –
O=C1NCCCC[C@@H]1Nc1nc2ccccc2c2nc(-c3ccc(Br)cc3OC(F)(F)F)nn12 [Example 682, (3S)-3-({2-[4-bromo-2-(trifluoromethoxy)phenyl][1,2,4]triazolo[1,5-c]quinazolin-5-yl}amino)azepan-2-one] | 7.43e-08 M | 6.82 nM | –
CC[C@H](Nc1nc2ccccc2c2nc(-c3cnccn3)nn12)C(N)=O [Example 688, (2S)-2-{[2-(pyrazin-2-yl)[1,2,4]triazolo[1,5-c]quinazolin-5-yl]amino}butanamide] | > 2e-05 M | > 20000 nM | –
O=C1NCCCC[C@H]1Nc1nc2ccccc2c2nc(-c3cnccn3)nn12 [Example 689, (3R)-3-{[2-(pyrazin-2-yl)[1,2,4]triazolo[1,5-c]quinazolin-5-yl]amino}azepan-2-one] | 1.6e-07 M | 156 nM | –
CC[C@H](Nc1nc2ccccc2c2nc(-c3cn(C)nn3)nn12)C(N)=O [Example 690, (2S)-2-{[2-(1-methyl-1H-1,2,3-triazol-4-yl)[1,2,4]triazolo[1,5-c]quinazolin-5-yl]amino}butanamide] | > 2e-05 M | – | > 20000 nM
CC[C@@H](Nc1nc2ccccc2c2nc(-c3cnccn3)nn12)C(N)=O [Example 691, (2R)-2-{[2-(pyrazin-2-yl)[1,2,4]triazolo[1,5-c]quinazolin-5-yl]amino}butanamide] | 5.61e-07 M | 240 nM | –
O=C1NCCCC[C@@H]1Nc1nc2ccccc2c2nc(-c3cnccn3)nn12 [Example 695, (3S)-3-{[2-(pyrazin-2-yl)[1,2,4]triazolo[1,5-c]quinazolin-5-yl]amino}azepan-2-one] | 2.96e-06 M | 2190 nM | –
CC[C@H](Nc1nc2c(Br)cccc2c2nc(-c3ccc(Cl)cc3OC(F)F)nn12)C(N)=O [Example 698, (2S)-2-({7-bromo-2-[4-chloro-2-(difluoromethoxy)phenyl][1,2,4]triazolo[1,5-c]quinazolin-5-yl}amino)butanamide] | 4.68e-08 M | – | 7.35 nM
